Data on five compounds can be found in patent US7138361B2, “Herbicidal heterocycles” (E. I. du Pont de Nemours and Company, priority 2000, dated 2006).

SMILES strings stand for the structures.

What all share (test): Test C flooded paddy test
What all share (assay type): in vivo

Assay [1] relates to barnyardgrass (Echinochloa crus-galli). As to conditions: for Barnyardgrass plant response rating: scale 0 to 100, 0 no effect, 100 complete control. The method in brief:
(§1)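 Visual ratings (0 = no effect, 100 = complete control) were made 12–14 days after treatment, relative to greenhouse controls. Plants in the flooded paddy test were rice, smallflower flatsedge, duck salad and barnyardgrass, treated at the 2-leaf stage.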

Assay [2] deals with duck salad (Heteranthera limosa). The settings on record: for Ducksalad plant response rating: scale 0 to 100, 0 no effect, 100 complete control. The method in brief:
as §1

Another assay relates to rice (Oryza saliva). The settings on record: for Rice plant response rating: scale 0 to 100, 0 no effect, 100 complete control. The method in brief:
as §1

[3] abbreviates: Flooded Paddy, Rate 500 g/ha, scale 0 to 100.
Setting [4] is: flooded paddy test, Rate 62 g/ha, scale 0 to 100 (0 no effect, 100 complete control).
The mark [5] stands for this setting: flooded paddy test, Rate 125 g/ha, scale 0 to 100 (0 no effect, 100 complete control).

`CC(C)(C)c1ccn(C2SCN(c3cccc(C(F)(F)F)c3)C2=O)n1` (stereo not drawn) [Compound 1]: the “Plant response rating, Barnyardgrass” value in assay [1] (setting [3]) came out at 100; in assay [1] (setting [4]), 20; in assay [1] (setting [5]), 80. Also, in assay [1] (Flooded Paddy, Rate 250 g/ha), the “Barnyardgrass plant response rating” value turned out to be 30. In addition, the “Plant response rating, Ducksalad” value in assay [2] (setting [3]) is reported as 100; in assay [2] (setting [4]), 60; in assay [2] (setting [5]) it was 90. Moreover, the “Ducksalad plant response rating” value in assay [2] (Flooded Paddy, Rate 250 g/ha) turned out to be 90. Moreover, the “Plant response rating, Rice” value was found to be 50 in the assay with rice (Oryza saliva) (setting [3]), 0 with rice (Oryza saliva) (setting [4]) and 0 in the assay with rice (Oryza saliva) (setting [5]). Moreover, in the assay with rice (Oryza saliva) (Flooded Paddy, Rate 250 g/ha), the “Rice plant response rating” value came out at 0.
`O=C1C(n2ccc(C3CCC3)n2)OCN1c1cccc(C(F)(F)F)c1` (stereo not drawn) [Compound 39]: the “Barnyardgrass plant response rating” value is reported as 100 in assay [1] (Flooded Paddy, Rate 250 g/ha) and 100 in assay [1] (Flooded Paddy, Rate 500 g/ha). In addition, the “Plant response rating, Barnyardgrass” value in assay [1] (setting [4]) and in assay [1] (setting [5]) was 80 throughout. Moreover, the “Ducksalad plant response rating” value in assay [2] (Flooded Paddy, Rate 250 g/ha) is 70; in assay [2] (Flooded Paddy, Rate 500 g/ha), 100. Further, the “Plant response rating, Ducksalad” value is listed as 20 in assay [2] (setting [4]) and 60 in assay [2] (setting [5]). For the same compound, the “Rice plant response rating” value in the assay with rice (Oryza saliva) (Flooded Paddy, Rate 250 g/ha) worked out at 0; with rice (Oryza saliva) (Flooded Paddy, Rate 500 g/ha), 70. For the same compound, the “Plant response rating, Rice” value in the assay with rice (Oryza saliva) (setting [4]) and with rice (Oryza saliva) (setting [5]) was 0 in each case.
As to `CC(C)c1ccn(C2SCN(c3cccc(OC(F)F)c3)C2=O)n1` (stereo not drawn) [Compound 44], the “Barnyardgrass plant response rating” value turned out to be 100 in assay [1] (Flooded Paddy, Rate 250 g/ha) and 100 in assay [1] (Flooded Paddy, Rate 500 g/ha). Also, the “Plant response rating, Barnyardgrass” value in assay [1] (setting [4]) is reported as 90; in assay [1] (setting [5]) it was 100. Also, the “Ducksalad plant response rating” value in assay [2] (Flooded Paddy, Rate 250 g/ha) was found to be 100; in assay [2] (Flooded Paddy, Rate 500 g/ha), 100. In addition, the “Plant response rating, Ducksalad” value in assay [2] (setting [4]) stood at 50; in assay [2] (setting [5]), 90. Further, the “Rice plant response rating” value in the assay on rice (Oryza saliva) (Flooded Paddy, Rate 250 g/ha) worked out at 90; in the assay on rice (Oryza saliva) (Flooded Paddy, Rate 500 g/ha), 90. In addition, the “Plant response rating, Rice” value in the assay with rice (Oryza saliva) (setting [4]) and in the assay with rice (Oryza saliva) (setting [5]) was 80 each time.
In the case of `O=C1C(n2ccc(C3CCC3)n2)SCN1c1cccc(OC(F)F)c1` (stereo not drawn) [Compound 45], the “Barnyardgrass plant response rating” value in assay [1] (Flooded Paddy, Rate 250 g/ha) came out at 100; in assay [1] (Flooded Paddy, Rate 500 g/ha), 100. Further, the entries for the “Plant response rating, Barnyardgrass” value in assay [1] (setting [4]) and in assay [1] (setting [5]) were 70 and 100, respectively. The “Ducksalad plant response rating” value was determined as 100 in assay [2] (Flooded Paddy, Rate 250 g/ha) and 100 in assay [2] (Flooded Paddy, Rate 500 g/ha). For the same compound, the “Plant response rating, Ducksalad” value is listed as 50 in assay [2] (setting [4]) and 80 in assay [2] (setting [5]). The “Rice plant response rating” value is reported as 70 with rice (Oryza saliva) (Flooded Paddy, Rate 250 g/ha) and 100 in the assay with rice (Oryza saliva) (Flooded Paddy, Rate 500 g/ha). Besides, the “Plant response rating, Rice” value was determined as 0 in the assay on rice (Oryza saliva) (setting [4]) and 50 in the assay with rice (Oryza saliva) (setting [5]).
In the case of `CC1(c2ccn(C3OCN(c4cccc(C(F)(F)F)c4)C3=O)n2)CC1` (stereo not drawn) [Compound 62], the “Barnyardgrass plant response rating” value in assay [1] (Flooded Paddy, Rate 250 g/ha) was 20; in assay [1] (Flooded Paddy, Rate 500 g/ha), 80. Also, the “Plant response rating, Barnyardgrass” value in assay [1] (setting [4]) stood at 0; in assay [1] (setting [5]), 20. Besides, the “Ducksalad plant response rating” value was found to be 0 in assay [2] (Flooded Paddy, Rate 250 g/ha) and 0 in assay [2] (Flooded Paddy, Rate 500 g/ha). Further, the “Plant response rating, Ducksalad” value in assay [2] (setting [4]) and in assay [2] (setting [5]) was 0 throughout. In addition, the “Rice plant response rating” value in the assay on rice (Oryza saliva) (Flooded Paddy, Rate 250 g/ha) is recorded as 50; in the assay with rice (Oryza saliva) (Flooded Paddy, Rate 500 g/ha), 50. Also, the “Plant response rating, Rice” value in the assay on rice (Oryza saliva) (setting [4]) and with rice (Oryza saliva) (setting [5]) was 0 throughout.
